What was measured:
Type in all cases: cell-based
human TLR9 = biological target: T1, human TLR9 (Homo sapiens, UniProt Q9NR96); assay: TLR7/8/9 Inhibition Reporter Assays (TLR9); settings: HEK-Blue cells overexpressing human TLR9, SEAP reporter, stimulated with TLR9 ligand ODN2006
T1 construct: host or cells: HEK-Blue cells (HEK293-derived reporter line)
T1 sequence (Q9NR96 26-1032): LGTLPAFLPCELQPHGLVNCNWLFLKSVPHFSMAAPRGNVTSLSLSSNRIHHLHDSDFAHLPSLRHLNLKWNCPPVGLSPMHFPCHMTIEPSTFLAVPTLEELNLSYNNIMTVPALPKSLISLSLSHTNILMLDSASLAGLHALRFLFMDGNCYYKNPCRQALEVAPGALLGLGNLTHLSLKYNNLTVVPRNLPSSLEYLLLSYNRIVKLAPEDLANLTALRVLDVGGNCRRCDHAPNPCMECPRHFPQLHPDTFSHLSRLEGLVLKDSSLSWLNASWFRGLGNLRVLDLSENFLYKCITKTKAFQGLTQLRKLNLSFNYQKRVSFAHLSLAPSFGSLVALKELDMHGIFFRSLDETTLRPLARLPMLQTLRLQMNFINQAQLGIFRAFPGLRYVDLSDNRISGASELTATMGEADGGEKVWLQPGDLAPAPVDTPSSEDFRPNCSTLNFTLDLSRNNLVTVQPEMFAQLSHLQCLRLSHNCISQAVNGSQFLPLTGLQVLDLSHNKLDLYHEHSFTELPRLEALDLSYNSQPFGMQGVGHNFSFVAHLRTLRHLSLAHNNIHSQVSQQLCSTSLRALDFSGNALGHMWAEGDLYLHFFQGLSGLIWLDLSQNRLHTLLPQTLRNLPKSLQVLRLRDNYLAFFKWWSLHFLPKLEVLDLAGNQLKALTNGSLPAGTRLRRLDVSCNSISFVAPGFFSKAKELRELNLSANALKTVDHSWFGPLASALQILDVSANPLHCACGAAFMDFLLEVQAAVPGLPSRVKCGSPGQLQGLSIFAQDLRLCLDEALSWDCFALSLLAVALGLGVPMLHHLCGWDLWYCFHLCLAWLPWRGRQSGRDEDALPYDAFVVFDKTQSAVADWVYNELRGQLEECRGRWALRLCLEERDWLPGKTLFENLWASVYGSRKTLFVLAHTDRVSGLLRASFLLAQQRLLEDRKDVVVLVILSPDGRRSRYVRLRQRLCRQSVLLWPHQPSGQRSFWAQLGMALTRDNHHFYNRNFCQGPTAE
Method in brief: (§1)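 HEK-Blue cells overexpressing human TLR7, TLR8 or TLR9 with NF-κB/AP-1-driven SEAP reporter, pre-treated 60 min with compound ([…]). Stimulated with […] (TLR7), […] (TLR8) or ODN2006 200 nM (TLR9), then 22 h at 37° C; SEAP measured, % inhibition relative to agonist-plus-DMSO and known-inhibitor wells.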

human TLR7 = biological target: T2, human TLR7 (Homo sapiens, UniProt Q9NYK1); assay: TLR7/8/9 Inhibition Reporter Assays (TLR7); settings: HEK-Blue cells overexpressing human TLR7, SEAP reporter, stimulated with TLR7 ligand gardiquimod
T2 construct: host or cells: HEK-Blue cells (HEK293-derived reporter line)
T2 sequence (Q9NYK1 27-1049): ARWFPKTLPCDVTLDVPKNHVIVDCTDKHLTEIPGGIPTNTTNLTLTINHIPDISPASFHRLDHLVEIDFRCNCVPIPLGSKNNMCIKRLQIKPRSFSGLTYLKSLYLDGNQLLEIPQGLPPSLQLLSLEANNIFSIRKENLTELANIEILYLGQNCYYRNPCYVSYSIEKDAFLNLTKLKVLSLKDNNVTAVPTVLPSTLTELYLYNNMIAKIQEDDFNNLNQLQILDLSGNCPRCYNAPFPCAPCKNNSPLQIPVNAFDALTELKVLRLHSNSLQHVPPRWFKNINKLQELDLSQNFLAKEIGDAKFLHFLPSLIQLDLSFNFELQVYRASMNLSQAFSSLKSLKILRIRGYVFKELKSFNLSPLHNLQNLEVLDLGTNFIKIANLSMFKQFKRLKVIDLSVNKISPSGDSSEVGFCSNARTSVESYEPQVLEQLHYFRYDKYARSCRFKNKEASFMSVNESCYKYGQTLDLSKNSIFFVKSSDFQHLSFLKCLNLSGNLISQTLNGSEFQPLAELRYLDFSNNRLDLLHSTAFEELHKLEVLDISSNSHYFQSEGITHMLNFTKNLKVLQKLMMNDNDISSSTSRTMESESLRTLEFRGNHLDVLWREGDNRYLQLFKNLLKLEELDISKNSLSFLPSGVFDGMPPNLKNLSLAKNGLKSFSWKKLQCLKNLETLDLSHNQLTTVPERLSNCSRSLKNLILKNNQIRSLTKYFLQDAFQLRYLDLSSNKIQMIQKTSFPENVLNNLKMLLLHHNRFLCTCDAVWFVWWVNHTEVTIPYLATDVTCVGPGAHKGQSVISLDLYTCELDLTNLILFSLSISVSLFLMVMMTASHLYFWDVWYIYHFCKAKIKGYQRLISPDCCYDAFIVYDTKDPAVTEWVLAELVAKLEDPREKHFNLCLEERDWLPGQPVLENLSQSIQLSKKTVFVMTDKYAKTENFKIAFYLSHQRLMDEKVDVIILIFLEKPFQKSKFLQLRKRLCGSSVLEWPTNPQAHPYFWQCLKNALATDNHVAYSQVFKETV
Method in brief: as §1

human TLR8 = biological target: T3, human TLR8 (Homo sapiens, UniProt Q9NR97); assay: TLR7/8/9 Inhibition Reporter Assays (TLR8); settings: HEK-Blue cells overexpressing human TLR8, SEAP reporter, stimulated with TLR8 ligand R848
T3 construct: host or cells: HEK-Blue cells (HEK293-derived reporter line)
T3 sequence (Q9NR97 27-1041): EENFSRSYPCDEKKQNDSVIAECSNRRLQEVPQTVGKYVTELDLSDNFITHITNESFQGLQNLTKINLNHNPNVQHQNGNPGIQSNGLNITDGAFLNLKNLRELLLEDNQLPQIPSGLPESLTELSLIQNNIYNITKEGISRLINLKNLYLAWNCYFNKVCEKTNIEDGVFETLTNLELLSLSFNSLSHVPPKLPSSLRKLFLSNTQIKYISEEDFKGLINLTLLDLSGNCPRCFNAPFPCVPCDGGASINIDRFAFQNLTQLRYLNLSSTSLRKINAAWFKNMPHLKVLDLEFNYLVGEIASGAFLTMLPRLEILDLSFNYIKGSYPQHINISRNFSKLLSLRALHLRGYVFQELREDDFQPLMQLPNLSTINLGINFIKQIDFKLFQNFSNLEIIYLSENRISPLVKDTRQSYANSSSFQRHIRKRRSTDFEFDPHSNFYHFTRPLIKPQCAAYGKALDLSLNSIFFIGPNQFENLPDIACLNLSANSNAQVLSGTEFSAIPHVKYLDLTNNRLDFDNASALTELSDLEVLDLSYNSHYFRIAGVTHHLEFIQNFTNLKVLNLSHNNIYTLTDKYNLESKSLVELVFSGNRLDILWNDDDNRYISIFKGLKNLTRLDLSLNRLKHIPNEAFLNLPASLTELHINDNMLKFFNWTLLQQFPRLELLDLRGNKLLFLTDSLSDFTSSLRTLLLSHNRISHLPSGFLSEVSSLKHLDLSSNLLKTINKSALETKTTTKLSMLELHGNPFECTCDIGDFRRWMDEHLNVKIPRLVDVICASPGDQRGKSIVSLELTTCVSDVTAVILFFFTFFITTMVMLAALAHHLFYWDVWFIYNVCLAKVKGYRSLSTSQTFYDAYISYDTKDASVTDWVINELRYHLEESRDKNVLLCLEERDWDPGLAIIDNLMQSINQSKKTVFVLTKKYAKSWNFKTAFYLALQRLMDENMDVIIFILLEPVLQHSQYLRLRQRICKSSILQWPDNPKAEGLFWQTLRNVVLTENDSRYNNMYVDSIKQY
Method in brief: as §1

SMILES	IC50 (human TLR9) [nM]	IC50 (human TLR7) [nM]	IC50 (human TLR8) [nM]
CC(C)N1CC2(CCN(c3ccc(-c4cc5c(cn4)nc(-c4ccc(S(C)(=O)=O)cc4)n5C)cc3)CC2)C1 [Example 95, 6-(4-(2-isopropyl-2,7-diazaspiro[3.5]nonan-7-yl)phenyl)-1-methyl-2-(4-(methylsulfonyl)phenyl)-1H-imidazo[4,5-c]pyridine]	350	2100	890
COc1ccc(-c2nc3c(C)nc(-c4ccc(N5CCC6(CC5)CN(CC(C)(C)O)C6)cc4)cc3n2C)cc1OC [Example 92, 1-(7-(4-(2-(3,4-dimethoxyphenyl)-1,4-dimethyl-1H-imidazo[4,5-c]pyridin-6-yl)phenyl)-2,7-diazaspiro[3.5]nonan-2-yl)-2-methylpropan-2-ol]	1000	1500	> 50000
Cc1cc(-c2nc3c(C)nc(-c4ccc(N5CCN(CC6CC6)CC5)cc4)cc3n2C)cc(C)n1 [Example 15, 6-(4-(4-(cyclopropylmethyl)piperazin-1-yl)phenyl)-2-(2,6-dimethylpyridin-4-yl)-1,4-dimethyl-1H-imidazo[4,5-c]pyridine]	460	1100	18000
COc1ccc(-c2nc3c(C)nc(-c4ccc(N5CCN(C6CCC6)CC5)cc4)cc3n2C)cc1OC [Example 19, 6-(4-(4-cyclobutylpiperazin-1-yl)phenyl)-2-(3,4-dimethoxyphenyl)-1,4-dimethyl-1H-imidazo[4,5-c]pyridine]	820	850	> 50000
COc1cc(-c2nc3c(C)nc(-c4ccc(N5CCN(C6CCC6)CC5)cc4)cc3n2C)cn2ncnc12 [Example 12, 6-(6-(4-(4-cyclobutylpiperazin-1-yl)phenyl)-1,4-dimethyl-1H-imidazo[4,5-c]pyridin-2-yl)-8-methoxy-[1,2,4]triazolo[1,5-a]pyridine]	630	1500	> 50000
CS(=O)(=O)c1ccc(-c2nc3cnc(-c4ccc(N5CCN(CCN6CCOCC6)CC5)cc4)cc3n2C2CC2)cc1 [Example 56, 4-(2-(4-(4-(1-cyclopropyl-2-(4-(methylsulfonyl)phenyl)-1H-imidazo[4,5-c]pyridin-6-yl)phenyl)piperazin-1-yl)ethyl)morpholine]	880	> 50000	46000

Now those with a lower IC50 (human TLR9), led by results:

IC50 (human TLR9) [nM]	IC50 (human TLR7) [nM]	IC50 (human TLR8) [nM]	SMILES
320	9100	> 50000	COc1ccc(-c2nc3c(C)nc(-c4ccc(N5CC6(C5)CN(C5COC5)C6)cc4)cc3n2C)cc1OC [Example 102, 2-(3,4-dimethoxyphenyl)-1,4-dimethyl-6-(4-(6-(oxetan-3-yl)-2,6-diazaspiro[3.3]heptan-2-yl)phenyl)-1H-imidazo[4,5-c]pyridine]
310	11000	> 25000	Cc1nc(-c2ccc(C3CCN(C4CCOCC4)CC3)cc2)cc2c1nc(-c1ccc(S(C)(=O)=O)cc1)n2C [Example 28, 1,4-dimethyl-2-(4-(methylsulfonyl)phenyl)-6-(4-(1-(tetrahydro-2H-pyran-4-yl)piperidin-4-yl)phenyl)-1H-imidazo[4,5-c]pyridine]
250	5100	1200	CC(C)N1CC2(CCN(c3ccc(-c4cc5c(cn4)nc(-c4ccc(S(C)(=O)=O)cc4)n5C4CC4)cc3)CC2)C1 [Example 62, 1-cyclopropyl-6-(4-(2-isopropyl-2,7-diazaspiro[3.5]nonan-7-yl)phenyl)-2-(4-(methylsulfonyl)phenyl)-1H-imidazo[4,5-c]pyridine]
230	1700	5500	Cc1nc(-c2ccc(CN3CCC(N(C)C4CC4)CC3)cc2)cc2c1nc(-c1ccc(S(C)(=O)=O)cc1)n2C [Example 47, N-cyclopropyl-1-(4-(1,4-dimethyl-2-(4-(methylsulfonyl)phenyl)-1H-imidazo[4,5-c]pyridin-6-yl)benzyl)-N-methylpiperidin-4-amine]
160	650	6000	Cc1nc(-c2ccc(N3CCC4(CC3)CN(C(C)C)C4)cc2)cc2c1nc(-c1ccc(S(C)(=O)=O)cc1)n2C [Example 72, 6-(4-(2-isopropyl-2,7-diazaspiro[3.5]nonan-7-yl)phenyl)-1,4-dimethyl-2-(4-(methylsulfonyl)phenyl)-1H-imidazo[4,5-c]pyridine]
160	12000	12000	COc1ccc(-c2nc3cnc(-c4ccc(N5CCC6(CC5)CN(CC(C)C)C6)cc4)cc3n2C2CC2)cc1OC [Example 61, 1-cyclopropyl-2-(3,4-dimethoxyphenyl)-6-(4-(2-isobutyl-2,7-diazaspiro[3.5]nonan-7-yl)phenyl)-1H-imidazo[4,5-c]pyridine]
140	2300	37000	COc1ccc(-c2nc3c(C)nc(-c4ccc(N5CCC6(CC5)CN(C(C)C)C6)cc4)cc3n2C)cc1OC [Example 60, 2-(3,4-dimethoxyphenyl)-6-(4-(2-isopropyl-2,7-diazaspiro[3.5]nonan-7-yl)phenyl)-1,4-dimethyl-1H-imidazo[4,5-c]pyridine]
